According to patent US11274083B2, “Substituted thiophenyl uracils, salts thereof and the use thereof as herbicidal agents” (Syngenta Crop Protection AG, priority 2017, dated 2022):

Legend:
Assay type in all cases: in vivo
Abutilon theophrasti = test: Herbicidal action post-emergence, greenhouse pot test; conditions: application rate 20 g/ha
Protocol: (§1) Seeds of mono- and dicotyledonous weed plants and crop plants were laid out in sandy loam soil in plastic or wood-fiber pots, covered with soil and grown under controlled growth conditions in a greenhouse. 2 to 3 weeks after sowing, the trial plants were treated at the one-leaf stage. The compounds of the invention formulated in the form of wettable powders (WP) or as emulsion concentrates (EC) were then sprayed onto the green parts of the plant as an aqueous suspension or emulsion with addition of 0.5% additive at a water application rate equivalent to 600 L/ha. After the trial plants had stood for about 3 weeks in the greenhouse, under optimal growth conditions, the effect of the preparations was scored visually by comparison with untreated controls. For example, 100% efficacy=plants have died, 0% efficacy=like control plants. Tables A1 to A16 below show the efficacies of selected compounds of the general formula (I) according to tables I.1 to I.50 on various harmful plants and an application rate corresponding to 80 g/ha or lower that were obtained by the aforementioned trial method.

Amaranthus retroflexus = test: as above; conditions: application rate 20 g/ha
Protocol: as §1

Echinochloa crus-galli = test: as above; conditions: application rate 20 g/ha
Protocol: as §1

Matricaria inodora = test: as above; conditions: application rate 20 g/ha
Protocol: as §1

Pharbitis purpurea = test: as above
Protocol: as §1

Polygonum convolvulus = test: as above
Protocol: as §1

Setaria viridis = test: as above; conditions: application rate 20 g/ha
Protocol: as §1

Stellaria media = test: as above; conditions: application rate 20 g/ha
Protocol: as §1

Veronica persica = test: as above
Protocol: as §1

Viola tricolor = test: as above; conditions: application rate 20 g/ha
Protocol: as §1

Triticum aestivum = test: Crop compatibility post-emergence, greenhouse pot test
Protocol: as §1, with “plants.” for “plants. Tables A1 to A16 below show the efficacies of selected compounds of the general formula (I) according to tables I.1 to I.50 on various harmful plants and an application rate corresponding to 80 g/ha or lower that were obtained by the aforementioned trial method.”
(§2) Crop plant compatibilities were also scored correspondingly.
(§3) The effects observed are reported here on selected crop plants by comparison, with the untreated controls (values in %).

Digitaria sanguinalis = test: Herbicidal action post-emergence, greenhouse pot test; conditions: application rate 20 g/ha
Oryza sativa = test: Crop compatibility post-emergence, greenhouse pot test
Protocol: as §1, with “plants.” for “plants. Tables A1 to A16 below show the efficacies of selected compounds of the general formula (I) according to tables I.1 to I.50 on various harmful plants and an application rate corresponding to 80 g/ha or lower that were obtained by the aforementioned trial method.”
as §2, §3

SMILES | Abutilon theophrasti (Efficacy in %) (Abutilon theophrasti) [%] | Amaranthus retroflexus (Efficacy in %) (Amaranthus retroflexus) [%] | Echinochloa crus-galli (Efficacy in %) (Echinochloa crus-galli) [%] | Matricaria inodora (Efficacy in %) (Matricaria inodora) [%] | Pharbitis purpurea (Efficacy in %) (Pharbitis purpurea; application rate 20 g/ha) [%] | Polygonum convolvulus (Efficacy in %) (Polygonum convolvulus; application rate 20 g/ha) [%] | Setaria viridis (Efficacy in %) (Setaria viridis) [%] | Stellaria media (Efficacy in %) (Stellaria media) [%] | Veronica persica (Efficacy in %) (Veronica persica; application rate 20 g/ha) [%] | Viola tricolor (Efficacy in %) (Viola tricolor) [%] | Triticum aestivum (Efficacy in %) (Triticum aestivum; application rate 5 g/ha) [%] | Digitaria sanguinalis (Efficacy in %) (Digitaria sanguinalis) [%] | Oryza sativa (Efficacy in %) (Oryza sativa; application rate 5 g/ha) [%] | Oryza sativa (Efficacy in %) (Oryza sativa; application rate 20 g/ha) [%] | Triticum aestivum (Efficacy in %) (Triticum aestivum; application rate 20 g/ha) [%] | Veronica persica (Efficacy in %) (Veronica persica; application rate 5 g/ha) [%] | Polygonum convolvulus (Efficacy in %) (Polygonum convolvulus; application rate 5 g/ha) [%] | Pharbitis purpurea (Efficacy in %) (Pharbitis purpurea; application rate 5 g/ha) [%]
CCCCOC(=O)COC(=O)C(C)Sc1cc(-n2c(=O)cc(C(F)(F)F)n(C)c2=O)c(F)cc1Cl (stereo not shown) [I.1-51] | 100 | 100 | 100 | 100 | 100 | 100 | 100 | 100 | 100 | 100 | 0 | 90 | – | – | – | – | – | –
CC(Sc1cc(-n2c(=O)cc(C(F)(F)F)n(C)c2=O)c(F)cc1Cl)C(=O)OCC1CCC(=O)O1 (stereo not shown) [I.1-145] | – | – | – | – | – | – | – | – | – | – | – | – | 20 | – | – | – | – | –
CCOC(=O)C1(COC(=O)C(C)Sc2cc(-n3c(=O)cc(C(F)(F)F)n(C)c3=O)c(F)cc2Cl)CCOCC1 (stereo not shown) [I.1-293] | 100 | 100 | 90 | 100 | – | – | 90 | 100 | 100 | 100 | – | 100 | – | – | – | – | – | –
CCC(Sc1cc(-n2c(=O)cc(C(F)(F)F)n(C)c2=O)c(F)cc1Cl)C(=O)OCC1CCC(=O)O1 (stereo not shown) [I.2-145, (5-Oxotetrahydrofuran-2-yl)methyl 2-({2-chloro-4-fluoro-5-[3-methyl-2,6-dioxo-4-(trifluoromethyl)-3,6-dihydropyrimidin-1(2H)-yl]phenyl}sulfanyl)butanoate] | 100 | 100 | 100 | 100 | – | 100 | 100 | 100 | 100 | 100 | – | 100 | – | 0 | 20 | – | – | –
CCOC(=O)CCOC(=O)C(CC(C)C)Sc1cc(-n2c(=O)cc(C(F)(F)F)n(C)c2=O)c(F)cc1Cl (stereo not shown) [I.4-3, 3-Ethoxy-3-oxopropyl 2-({2-chloro-4-fluoro-5-[3-methyl-2,6-dioxo-4-(trifluormethyl)-3,6-dihydropyrimidin-1(2H)-yl]phenyl}sulfanyl)-4-methylpentanoate] | 100 | 100 | – | 80 | – | – | 90 | – | 80 | 100 | – | – | – | – | – | – | – | –
CCOC(=O)COC(=O)C(CC(C)C)Sc1cc(-n2c(=O)cc(C(F)(F)F)n(C)c2=O)c(F)cc1Cl (stereo not shown) [I.4-43] | 100 | 100 | – | 90 | – | 100 | – | 80 | 100 | 100 | – | – | – | 10 | 10 | – | – | –
CCOC(=O)CCOC(=O)C(Sc1cc(-n2c(=O)cc(C(F)(F)F)n(C)c2=O)c(F)cc1Cl)C(C)C (stereo not shown) [I.6-3, 3-Ethoxy-3-oxopropyl 2-({2-chloro-4-fluoro-5-[3-methyl-2,6-dioxo-4-(trifluoromethyl)-3,6-dihydropyrimidin-1(2H)-yl]phenyl}sulfanyl)-3-methylbutanoate] | 100 | 100 | – | 100 | – | – | 100 | 100 | 100 | 100 | – | 100 | – | 20 | – | – | – | –
CCOC(=O)COC(=O)C(Sc1cc(-n2c(=O)cc(C(F)(F)F)n(C)c2=O)c(F)cc1Cl)C(C)C (stereo not shown) [I.6-43, 2-Ethoxy-2-oxoethyl 2-({2-chloro-4-fluoro-5-[3-methyl-2,6-dioxo-4-(trifluoromethyl)-3,6-dihydropyrimidin-1(2H)-yl]phenyl}sulfanyl)-3-methylbutanoate] | 100 | – | – | – | – | – | – | 90 | – | 100 | – | – | – | 0 | – | 100 | – | –
CCOC(=O)COC(=O)C(COC)Sc1cc(-n2c(=O)cc(C(F)(F)F)n(C)c2=O)c(F)cc1Cl (stereo not shown) [I.7-43] | – | – | – | – | – | – | – | – | – | – | – | 100 | – | – | – | – | – | –
CCOC(=O)COC(=O)CSc1cc(-n2c(=O)cc(C(F)(F)F)n(C)c2=O)c(F)cc1Cl [I.8-43] | 100 | 100 | 90 | 100 | 100 | 100 | 100 | 80 | 100 | 100 | 10 | – | – | – | – | – | – | –
CC(C)OC(=O)COC(=O)CSc1cc(-n2c(=O)cc(C(F)(F)F)n(C)c2=O)c(F)cc1Cl [I.8-44] | 100 | 100 | – | 100 | 100 | – | 100 | 100 | 100 | 100 | 20 | – | – | – | – | – | 100 | –
Cn1c(C(F)(F)F)cc(=O)n(-c2cc(SCC(=O)OCC(=O)OCc3ccccc3)c(Cl)cc2F)c1=O [I.8-46] | 100 | 100 | 90 | 100 | 100 | 100 | 100 | 100 | 100 | 100 | 20 | – | – | – | – | – | – | –
CCCCOC(=O)COC(=O)CSc1cc(-n2c(=O)cc(C(F)(F)F)n(C)c2=O)c(F)cc1Cl [I.8-51] | 100 | 100 | 90 | 100 | 100 | 100 | 100 | – | 100 | 100 | – | 100 | – | 0 | 20 | – | – | –
CCOC(=O)CCOC(=O)C(C)Sc1cc(-n2c(=O)c(C)c(C(F)(F)F)n(C)c2=O)c(F)cc1Cl (stereo not shown) [I.11-3] | 100 | – | 100 | 90 | – | – | – | 100 | – | 90 | 10 | – | – | 10 | – | – | – | –
CCOC(=O)CCOC(=O)C(CC)Sc1cc(-n2c(=O)c(C)c(C(F)(F)F)n(C)c2=O)c(F)cc1Cl (stereo not shown) [I.12-3] | 100 | 100 | 100 | – | – | 100 | 100 | 100 | 100 | 100 | – | 100 | – | 0 | 20 | – | – | 100
CCCCC(Sc1cc(-n2c(=O)cc(C(F)(F)F)n(C)c2=O)c(F)cc1Cl)C(=O)OCCC(=O)OCC (stereo not shown) [I.47-3] | 100 | 100 | 80 | 100 | 100 | 100 | 100 | – | 100 | 100 | – | 100 | – | 20 | 20 | – | – | –
